Assays:
[1] = tested on: A549 cells (wild-type p53); test: Growth assay, A549 cell line; type: cell-based, human
[2] = tested on: H460 cells (wild-type p53); test: Growth assay, H460 cell line; type: cell-based, human
Method: (§1) Non-small cell lung cancer cell lines H460 (wild-type p53), H358 (p53 deleted), and […] (p53 mutant) were obtained from Drs. Adi Gazdar and John Minna. A549 (wild-type p53) was obtained from ATCC (Rockville, Md.). All cell lines were grown in RPMI 1640 media supplemented with 5% heat inactivated fetal bovine serum and maintained at 5% CO2. All the studies were done when the cells were 70% confluent.
(§2) For cell growth measurements, 5×10^4 cells were plated in each well of six well plates. Control and treated cells were trypsinized and counted using a hemocytotometer. Studies were performed in triplicate.
The inventors tested the effect of 2-MeOE2 treatment on the growth characteristics of four different human lung cancer cell lines differing in their p53 status: H3.58 (p53 deleted), H322 (p53 mutated), H460 (wild-type p53), A549 (wild-type p53).
The cells were treated with 5 μM of 2-MeOE2 or 16-epiestriol (another metabolite of estrogen) and growth of the cells was monitored for five days (FIG. 1).

H322 cells (p53 mutated) [3] = test: Growth assay, H322 cell line; type: cell-based, human
Method: as §1, §2
(§3) The inventors tested the effect of 2-MeOE2 treatment on the growth characteristics of four different human lung cancer cell lines differing in their p53 status: H3.58 (p53 deleted), H322 (p53 mutated), H460 (wild-type p53), A549 (wild-type p53). […]

H358 cells (p53 deleted) = test: Growth assay, H358 cell line; type: cell-based, human
Method: as §1, §2, §3

wild-type p53 protein = test: Western blot analysis of p53 protein, wild-type p53 lung cancer cell lines; type: cell-based, human
Method: (§4) Control and drug treated cells were washed in cold PBS, lysed in Laemmli's sample buffer, and subjected to western blot analysis as described previously (Mukhopadhyay et al., 1995). Blots were probed with Pab 1801 anti-p53 monoclonal antibody (Oncogene Sciences, Uniondale, N.Y.). The blot was further probed with anti-WAF1 monoclonal antibody (p21).
(§5) Blots were washed in Tris-buffered saline containing 0.1% Tween 20, incubated with horse radish peroxidase conjugated to secondary antibody and specific immunocomplex was detected by enhanced chemiluminescence technique according to the manufacturer's directions (Amersham, Arlington, Ill.). Blots were reprobed with anti-actin monoclonal antibody (Amersham) to show the equal protein loading.

mutated p53 protein = test: Western blot analysis of p53 protein, H322 cell line; type: cell-based, human
Method: as §4, §5

[4] = tested on: p53 protein in normal bronchial epithelial cell lines; test: Western blot analysis of p53 protein, normal bronchial epithelial cell lines; type: cell-based
Method: as §4, §5

p21WAF1/CIP1 protein = test: Western blot with WAF1 monoclonal antibody (p21); type: cell-based, human
Method: as §4, §5

p53 DNA binding activity = test: Electrophoretic mobility shift assay (EMSA), p53 DNA binding; type: cell-based, human; conditions: H460 cells, 5 μm for 48 h
Method: Electrophoretic mobility shift assays (EMSA) were performed using nuclear extract prepared from the H460 cell line. Nuclear extracts were prepared from untreated control and 2-MeOE2 treated cells. Cells were washed in ice cold PBS and scraped into 0.5 ml nuclei harvesting buffer (10 mM HEPES, pH 7.9; 10 mM KCl; 0.1 mM ETA, 1 mM dithiothretol (DTT), 0.1% NP-40; 0.5 mM phenyl methyl-sulfonyl fluoride; […]; 0.5 mg/ml benzamidine). After 30 min of incubation on ice, lysates were centrifuged for 1 min at 4° C. The nuclear pellet was resuspended in nuclear harvesting buffer containing 0.4 M NaCl and incubated on ice for 1 h. The nuclear extracts were microfuged at 12,000 rpm for 30 min at 4° C. and supernatant was stored at −70° C.
To perform electrophoretic mobility shift assays (EMSA), 10 μg of nuclear extract was mixed gently with 0.1 mg of poly (dl-dC) and 1 ng of ^32P-end labeled p53 consensus binding oligonucleotide in binding buffer (25 mM HEPES; pH 7.9; 0.5 mMEDTA; 0.5 mMDTT; 1% NP-40; 5% glycerol; 50 mM NaCl) in total reaction volume 20 μl. One microliter of (1 μg) p53 monoclonal antibody DO1 (Santa Cruz Biotechnology Inc., Calif.) was added to the DNA after binding and incubated for another 15 min to show the supershift. DNA-protein complexes were resolved in native 4.5% polyacrylamide gels. […]

lung cancer cell lines = test: Cell cycle analysis by flow cytometry; type: cell-based, human; conditions: PI labeling, FACScan, 48 h treatment
Method: It has been shown that induction of p21 causes p53-mediated G1 arrest and induces apoptosis. […] The cells were labeled with PI and cell cycle was analyzed by FACScan.

H460 cells [5] = test: TUNEL assay (TdT staining); type: cell-based, human; conditions: H460 cells grown in chamber slides
Method: Terminal deoxynucleotidyl transferase mediated dUTP-biotin nick end labeling (TUNEL) assay was performed as described previously (Fujiwara et al., 1994). […] Cells were incubated in TdT buffer (30 mM Tris Hcl, pH 7.2; 140 mM cacodylate, 1 mM cobalt chloride) and incubated with biotinylated dUTP (Boehringer Mannheim, Indianapolis, Ind.) and 100 U/ml TdT enzyme (Bethesda Research Laboratory) for 1 h at 37° C. The avidin-biotin complex was detected using the Vectastain Elite kit (Vector Laboratory, Burlingame, Calif.), by the diaminobenzidine-H2O2 method.

[6] = tested on: normal bronchial epithelium; test: Response of normal bronchial epithelium to 2-MeOE2 treatment; type: cell-based
[7] = tested on: normal human skin fibroblasts; conditions: even at a 100 μm concentration; cited from earlier work
endothelial cells [8] = conditions: read-out: half-maximal inhibitory concentration (IC50); cited from earlier work
solid tumors = conditions: cited from earlier work
[9] = tested on: colchicine binding site of the tubulin filaments; conditions: MCF-7 cell line; cited from earlier work
endothelial cells [10] = conditions: cited from earlier work
[11] = tested on: breast cancer cell line MCF-7; conditions: cited from earlier work
p53 mRNA = test: Northern blot analysis of p53 mRNA; conditions: H460, 48 h after treatment
Description: Total RNA was isolated from the subconfluent cultures using the guanidinium thiocyanate method (Chomczynsky and Sacchi, 1987). Twenty micrograms of total RNA was electrophoresed in 1.4% agarose/MOPS formaldehyde gel, transferred to nylon membrane and hybridized to a radiolabeled p53 cDNA probe as described previously (Mukhopadyay and Roth, 1993).

A549 cells = test: Apoptosis by FACS analysis, A549 cells
Method: (§6) Control and treated cells were collected by trypsinization, washed in PBS and fixed in 70% ethanol overnight. The next day cells were rehydrated in PBS for 30 min, centrifuged, and resuspended in PBS. For DNA analysis, propidium iodide (Sigma) was added at 50 μg/ml, and the cells were incubated in the presence of RNase at 15 μg/ml for 30 min at 37° C. Flow cytometric analysis was carried out in a fluorescence-activated cell sorter (Coulter Epics Elite).
(§7) Cells also were stained with biotinylated UTP for TUNEL assay to monitor the DNA fragmentation. H460 cells were grown in chamber slides and treated with the drugs and TdT staining was performed as described in Materials and Methods.

H460 cells [12] = test: Apoptosis by FACS analysis, H460 cells
Method: as §6, §7

H322 cells (p53 mutated) [13] = test: Apoptosis by FACS analysis, H322 cells; conditions: mutated cell line, after 48 h of 5 μm treatment
Method: as §6, §7

[14] = dose response studies, after 48 h, lung cancer cell lines

COc1cc2c(cc1O)CC[C@@H]1[C@@H]2CC[C@]2(C)[C@@H](O)CC[C@@H]12 [2-MeOE2, 2-methoxyestradiol]
growth inhibitory effect ([1]; 5 μM, growth monitored for five days, A549 (wild-type p53)): significant growth inhibitory effect | cell death during the growth assay ([1]; after 48 h, A549, crystal violet staining): significant increase in cell death | growth inhibitory effect ([2]; 5 μM, growth monitored for five days, H460 (wild-type p53)): significant growth inhibitory effect | cell death during the growth assay ([2]; after 48 h, H460, crystal violet staining): significant increase in cell death | growth inhibitory effect (H322 cells (p53 mutated) [3]; 5 μM, growth monitored for five days, H322 (p53 mutated)): virtually no growth inhibitory effect | cell death during the growth assay (H322 cells (p53 mutated) [3]; after 48 h, H322, crystal violet staining): only two dead cells | growth inhibitory effect (H358 cells (p53 deleted); 5 μM, growth monitored for five days, H358 (p53 deleted)): virtually no growth inhibitory effect | cell death during the growth assay (H358 cells (p53 deleted); after 48 h, H358, crystal violet staining): only two dead cells | concentration that stimulated p53 to a maximum level (wild-type p53 protein; [14]): 5 µM | increase of wild-type p53 protein levels (wild-type p53 protein; during 48 h of treatment, lung cancer cell lines carrying wild-type p53): 6- to 8 fold | level of the mutated p53 protein (mutated p53 protein): no increase | level of p53 protein [4]: no increase | increase in p21 protein expression (p21WAF1/CIP1 protein; A549 cell line): 3-5 fold | increase in p21 protein expression (p21WAF1/CIP1 protein; H460 cell line): 3-5 fold | concentration that stimulated p21 to a maximum level (p21WAF1/CIP1 protein; [14]): 5 µM | p53 DNA binding activity in nuclear extract vs untreated control (p53 DNA binding activity): three-fold increase | G1 arrest (cell cycle analysis) (lung cancer cell lines): no evidence of G1 arrest | DNA fragmentation (TUNEL, TdT staining) (H460 cells [5]): many apoptotic bodies | changes in response to treatment (p53 increase, apoptosis) [6]: did not show the observed changes | effect on normal human skin fibroblasts [7]: no effect | IC50 (endothelial cells [8]): 150 nM | general cytotoxicity in vivo (solid tumors; in vivo studies): not associated with general cytotoxicity | capillary formation in solid tumors (solid tumors; oral administration, mice): potent inhibition | growth of solid tumors (solid tumors; oral administration, mice): reduced growth | binding to tubulin [9]: bind to the colchicine binding site of the tubulin filaments | angiogenesis in vitro (endothelial cells [10]): inhibits | endothelial cell migration (endothelial cells [10]; in vitro): inhibits | cytotoxic effect [11]: cytotoxic effect | p53 mRNA levels (p53 mRNA): no change | peak representing apoptotic cells (PI, FACScan) (A549 cells; A549 cell line): A peak representing apoptotic cells appeared | apoptosis (DNA strand breaks, UTP-labeled biotin / FITC-avidin) (A549 cells; A549 cells): had undergone apoptosis | apoptotic cell death (A549 cells; A549 cells, after 48 h of 5 μm treatment, FACS analysis): ~48% | peak representing apoptotic cells (PI, FACScan) (H460 cells [12]; H460 cell line): A peak representing apoptotic cells appeared | apoptosis (DNA strand breaks, UTP-labeled biotin / FITC-avidin) (H460 cells [12]; H460 cells): had undergone apoptosis | apoptotic cell death (H322 cells (p53 mutated) [13]): no effect

C[C@]12CC[C@@H]3c4ccc(O)cc4CC[C@H]3[C@@H]1C[C@H](O)[C@@H]2O [epistriol, 16-epiestriol, reference compound]
G1 arrest (cell cycle analysis) (lung cancer cell lines): no evidence of G1 arrest | DNA fragmentation (TUNEL, TdT staining) (H460 cells [5]): little DNA fragmentation
